± gives the uncertainty stated by the source.
Test: xn = mol fraction of the nth substance listed

O=S(=O)([N-]S(=O)(=O)C(F)(F)F)C(F)(F)F.[Li+] + CC[n+]1ccn(C)c1.O=S(=O)([N-]S(=O)(=O)C(F)(F)F)C(F)(F)F + O
Details	electrical conductivity [S/m]	viscosity [mPa·s]
283 K, 101 kPa, x1 = 0.2649, x2 = 0	0.62 ± 0.01	–
283 K, 101 kPa, x1 = 0.2649, x2 = 0.2649	0.37 ± 0.01	90.3 ± 2.1
283 K, 101 kPa, x1 = 0.4189, x2 = 0.2649	0.049 ± 0.001	–
293 K, 101 kPa, x1 = 0.2649, x2 = 0	0.89 ± 0.02	69.2 ± 1.6
293 K, 101 kPa, x1 = 0.2649, x2 = 0.2649	0.56 ± 0.01	55 ± 1.3
293 K, 101 kPa, x1 = 0.4189, x2 = 0.2649	0.093 ± 0.002	407 ± 13
293.15 K, 100 kPa, x1 = 0.2745, x2 = 0.3509	–	55.7 ± 5.6
293.15 K, 100 kPa, x1 = 0.3106, x2 = 0.3509	–	71.5 ± 7.2
293.15 K, 100 kPa, x1 = 0.3509, x2 = 0.3509	–	111 ± 11
293.15 K, 100 kPa, x1 = 0.3868, x2 = 0.3509	–	157 ± 17
293.15 K, 100 kPa, x1 = 0.4189, x2 = 0.3509	–	220 ± 24
293.15 K, 100 kPa, x1 = 0.4478, x2 = 0.3509	–	312 ± 36
293.15 K, 100 kPa, x1 = 0.474, x2 = 0.3509	–	470 ± 57
293.15 K, 100 kPa, x1 = 0.4978, x2 = 0.3509	–	715 ± 93
298.1 K, 101 kPa, x1 = 0.2649, x2 = 0	1.04 ± 0.02	55.3 ± 1.2
298.1 K, 101 kPa, x1 = 0.2649, x2 = 0.2649	0.67 ± 0.01	44.2 ± 1
298.1 K, 101 kPa, x1 = 0.4189, x2 = 0.2649	0.12 ± 0.01	293 ± 9
298.15 K, 100 kPa, x1 = 0.2745, x2 = 0.3509	–	43.1 ± 4.3
298.15 K, 100 kPa, x1 = 0.3106, x2 = 0.3509	–	55.3 ± 5.6
298.15 K, 100 kPa, x1 = 0.3509, x2 = 0.3509	–	86.4 ± 8.8
298.15 K, 100 kPa, x1 = 0.3868, x2 = 0.3509	–	120 ± 13
298.15 K, 100 kPa, x1 = 0.4189, x2 = 0.3509	–	164 ± 18
298.15 K, 100 kPa, x1 = 0.4478, x2 = 0.3509	–	227 ± 25
298.15 K, 100 kPa, x1 = 0.474, x2 = 0.3509	–	336 ± 39
298.15 K, 100 kPa, x1 = 0.4978, x2 = 0.3509	–	497 ± 61
303 K, 101 kPa, x1 = 0.2649, x2 = 0	1.22 ± 0.03	45.4 ± 1
303 K, 101 kPa, x1 = 0.2649, x2 = 0.2649	0.8 ± 0.02	36 ± 0.8
303 K, 101 kPa, x1 = 0.4189, x2 = 0.2649	0.16 ± 0.01	216 ± 6
303.15 K, 100 kPa, x1 = 0.2745, x2 = 0.3509	–	34.6 ± 3.5
303.15 K, 100 kPa, x1 = 0.3106, x2 = 0.3509	–	44.4 ± 4.5
303.15 K, 100 kPa, x1 = 0.3509, x2 = 0.3509	–	62.3 ± 6.3
303.15 K, 100 kPa, x1 = 0.3868, x2 = 0.3509	–	92.4 ± 9.5
303.15 K, 100 kPa, x1 = 0.4189, x2 = 0.3509	–	126 ± 13
303.15 K, 100 kPa, x1 = 0.4478, x2 = 0.3509	–	171 ± 18
303.15 K, 100 kPa, x1 = 0.474, x2 = 0.3509	–	245 ± 28
303.15 K, 100 kPa, x1 = 0.4978, x2 = 0.3509	–	356 ± 42
313 K, 101 kPa, x1 = 0.2649, x2 = 0	1.6 ± 0.03	30.9 ± 0.7
313 K, 101 kPa, x1 = 0.2649, x2 = 0.2649	1.1 ± 0.02	24.9 ± 0.5
313 K, 101 kPa, x1 = 0.4189, x2 = 0.2649	0.25 ± 0.01	125 ± 3
313.15 K, 100 kPa, x1 = 0.2745, x2 = 0.3509	–	23.4 ± 2.4
313.15 K, 100 kPa, x1 = 0.3106, x2 = 0.3509	–	30.1 ± 3
313.15 K, 100 kPa, x1 = 0.3509, x2 = 0.3509	–	41.2 ± 4.2
313.15 K, 100 kPa, x1 = 0.3868, x2 = 0.3509	–	57.6 ± 5.8
313.15 K, 100 kPa, x1 = 0.4189, x2 = 0.3509	–	78.2 ± 7.9
313.15 K, 100 kPa, x1 = 0.4478, x2 = 0.3509	–	102 ± 11
313.15 K, 100 kPa, x1 = 0.474, x2 = 0.3509	–	142 ± 15
313.15 K, 100 kPa, x1 = 0.4978, x2 = 0.3509	–	197 ± 21
323 K, 101 kPa, x1 = 0.2649, x2 = 0	2.04 ± 0.04	21.8 ± 0.5
323 K, 101 kPa, x1 = 0.2649, x2 = 0.2649	1.45 ± 0.03	18.2 ± 0.4
323 K, 101 kPa, x1 = 0.4189, x2 = 0.2649	0.38 ± 0.01	78.5 ± 1.7
323.15 K, 100 kPa, x1 = 0.2745, x2 = 0.3509	–	16.7 ± 1.7
323.15 K, 100 kPa, x1 = 0.3106, x2 = 0.3509	–	21.4 ± 2.2
323.15 K, 100 kPa, x1 = 0.3509, x2 = 0.3509	–	29 ± 2.9
323.15 K, 100 kPa, x1 = 0.3868, x2 = 0.3509	–	39 ± 3.9
323.15 K, 100 kPa, x1 = 0.4189, x2 = 0.3509	–	50.9 ± 5.1
323.15 K, 100 kPa, x1 = 0.4478, x2 = 0.3509	–	61.3 ± 6.2
323.15 K, 100 kPa, x1 = 0.474, x2 = 0.3509	–	89.2 ± 9.1
323.15 K, 100 kPa, x1 = 0.4978, x2 = 0.3509	–	120 ± 13
333 K, 101 kPa, x1 = 0.2649, x2 = 0	2.58 ± 0.05	16.2 ± 0.4
333 K, 101 kPa, x1 = 0.2649, x2 = 0.2649	1.83 ± 0.04	13.8 ± 0.3
333 K, 101 kPa, x1 = 0.4189, x2 = 0.2649	0.53 ± 0.01	51.9 ± 1.1
333.15 K, 100 kPa, x1 = 0.2745, x2 = 0.3509	–	12.4 ± 1.3
333.15 K, 100 kPa, x1 = 0.3106, x2 = 0.3509	–	15.9 ± 1.6
333.15 K, 100 kPa, x1 = 0.3509, x2 = 0.3509	–	20.1 ± 2
333.15 K, 100 kPa, x1 = 0.3868, x2 = 0.3509	–	26.2 ± 2.6
333.15 K, 100 kPa, x1 = 0.4189, x2 = 0.3509	–	34.2 ± 3.4
333.15 K, 100 kPa, x1 = 0.4478, x2 = 0.3509	–	41.8 ± 4.2
333.15 K, 100 kPa, x1 = 0.474, x2 = 0.3509	–	53.7 ± 5.4
333.15 K, 100 kPa, x1 = 0.4978, x2 = 0.3509	–	78.1 ± 7.9
343.15 K, 100 kPa, x1 = 0.2745, x2 = 0.3509	–	9.49 ± 0.96
343.15 K, 100 kPa, x1 = 0.3106, x2 = 0.3509	–	12.2 ± 1.2
343.15 K, 100 kPa, x1 = 0.3509, x2 = 0.3509	–	15.2 ± 1.5
343.15 K, 100 kPa, x1 = 0.3868, x2 = 0.3509	–	19.1 ± 1.9
343.15 K, 100 kPa, x1 = 0.4189, x2 = 0.3509	–	24.5 ± 2.5
343.15 K, 100 kPa, x1 = 0.4478, x2 = 0.3509	–	29.6 ± 3
343.15 K, 100 kPa, x1 = 0.474, x2 = 0.3509	–	37.2 ± 3.7
343.15 K, 100 kPa, x1 = 0.4978, x2 = 0.3509	–	49.7 ± 5
353.15 K, 100 kPa, x1 = 0.2745, x2 = 0.3509	–	7.49 ± 0.76
353.15 K, 100 kPa, x1 = 0.3106, x2 = 0.3509	–	9.62 ± 0.97
353.15 K, 100 kPa, x1 = 0.3509, x2 = 0.3509	–	11.8 ± 1.2
353.15 K, 100 kPa, x1 = 0.3868, x2 = 0.3509	–	14.5 ± 1.5
353.15 K, 100 kPa, x1 = 0.4189, x2 = 0.3509	–	18.4 ± 1.9
353.15 K, 100 kPa, x1 = 0.4478, x2 = 0.3509	–	21.9 ± 2.2
353.15 K, 100 kPa, x1 = 0.474, x2 = 0.3509	–	27 ± 2.7
353.15 K, 100 kPa, x1 = 0.4978, x2 = 0.3509	–	35 ± 3.5
363.15 K, 100 kPa, x1 = 0.2745, x2 = 0.3509	–	6.01 ± 0.61
363.15 K, 100 kPa, x1 = 0.3106, x2 = 0.3509	–	7.72 ± 0.78
363.15 K, 100 kPa, x1 = 0.3509, x2 = 0.3509	–	9.69 ± 0.98
363.15 K, 100 kPa, x1 = 0.3868, x2 = 0.3509	–	11.3 ± 1.1
363.15 K, 100 kPa, x1 = 0.4189, x2 = 0.3509	–	14.2 ± 1.4
363.15 K, 100 kPa, x1 = 0.4478, x2 = 0.3509	–	16.6 ± 1.7
363.15 K, 100 kPa, x1 = 0.474, x2 = 0.3509	–	20.3 ± 2
363.15 K, 100 kPa, x1 = 0.4978, x2 = 0.3509	–	25.7 ± 2.6

O=S(=O)([N-]S(=O)(=O)C(F)(F)F)C(F)(F)F.[Li+] + CC[n+]1ccn(C)c1.O=S(=O)([O-])C(F)(F)F
electrical conductivity [S/m], 101 kPa
Details	x1 = 0.007746	x1 = 0.01537	x2 = 0.9697	x2 = 0.9746
288.15 K	0.587 ± 0.059	0.557 ± 0.056	–	0.538 ± 0.054
298.15 K	0.844 ± 0.085	0.823 ± 0.083	0.778 ± 0.078	0.785 ± 0.079
333.15 K	2.14 ± 0.21	2.13 ± 0.21	2.04 ± 0.2	2.04 ± 0.2

OCCO + CC[n+]1ccn(C)c1.O=S(=O)([O-])C(F)(F)F
100 kPa, x1 = 1
Details	viscosity [mPa·s]
308.15 K	11.16 ± 0.61
318.15 K	7.91 ± 0.6

From the CheMixHub ionic liquid set
